Experimental data reported in patent publication US20110067123A1, “MAO-B ELEVATION AS AN EARLY PARKINSON'S DISEASE BIOMARKER” (priority 2008, published 2011).
Like-named read-outs stand apart in the source and are kept apart here.

Tests used:
mesencephalic cultures = experiment: Extracellular H2O2 in medium of dox-induced mesencephalic cultures (Amplex Red); format: cell-based, mouse; conditions: 10 μM deprenyl, 30 μM EUK189 or 500 nM apocynin, FIG. 4
Protocol: Primary mixed cultures were prepared from the midbrain of 14-day-old mice embryos from MAO-B transgenics and WT controls. Tissue was digested in Neurobasal medium containing 30 U/ml papain and 20 μg/ml DNase at 37° C. for 30 min and mechanically triturated. Dissociated cells were centrifuged at 500×g, resuspended in growth medium (Neurobasal medium supplemented with 10% FBS, 2 mM […], […] supplement without antioxidants, 50 U/ml penicillin, 50 U/ml streptomycin and 50 ng/ml GDNF [57]), and plated on poly-d-lysine-coated 8 well chamber slides (BD-Biocoat) at a density of 10^5 cells per ml. Mixed cultures were grown at 37° C. for 3-5 days before induction with 40 μg/ml doxycycline for 12 hours as per. […] H2O2 in the medium was assayed by Amplex Red per the manufacturer's instructions. Dopaminergic and microglial cell counts were performed following fixation of the cultured cells for 15 min with 4% formaldehyde following by T11^+ (Chemicon) or Iba1^+ (WAKO USA, Richmond, Va.) immunostaining or via uptake of ASP^+ (4-(4-(dimethylamino)styryl)-N-methylpyridinium iodide) (Invitrogen), a fluorescent analogue of dopamine. 10 μM ASP^+ was loaded on to the uninduced or induced cultures in the presence of 20 μM of desipramine to inhibit the norepinephrine transporter which would also take up the dye. ASP^+ fluorescence (red) was visualized in the T11^+ cells after immunostaining with anti-T11 antibody and Alexa fluor 488 conjugated secondary antibody. Averages of manual double blind T11^+ or fluorescent counts of three wells of culture with the same treatment were collected; counts were performed in triplicate.

dopaminergic SN neurons = experiment: Stereological TH+ SN cell counts in inducible astrocytic MAO-B transgenic mice; format: in vivo, mouse; conditions: dox-induced transgenic mice; co-treatment i.p. 10-30 mg/kg/day for two weeks; FIG. 3A
[1] = test system: ST dopaminergic synaptosomes; experiment: H2O2 (DCF fluorescence) in isolated ST dopaminergic synaptosomes; format: in vivo, mouse; conditions: for elevation of H2O2 levels in ST dopaminergic synaptosomes: dox-induced animals co-treated, DCF fluorescence, FIG. 5C
Protocol: (§1) Dopaminergic and non-dopaminergic striatal synaptosomes were isolated using a modified immuno-magnetic protocol. Briefly, synaptosomes were prepared from dissected striatal tissue. Dopaminergic synaptosomes were isolated using magnetic beads conjugated to anti-rabbit IgG (Miltenyi Biotech) after capturing them using a rabbit anti-DAT antibody (Chemicon). Under a magnetic field, bead-bound synaptosomes were passed through a column and washed; flow-through in the presence of the magnetic field yielded a fraction enriched in non-dopaminergic striatal synaptosomes. Elution performed in the absence of the magnetic field yielded fractions enriched in dopaminergic striatal synaptosomes. Equal quantities of various fractions of the synaptosomes isolated using DAT antibody including the starting material or control, the unbound fraction, the flow-through, the wash and the eluate were subjected to western analysis to assess relative dopaminergic versus non-dopaminergic synaptosomal purification. Western blots were performed using antibodies against TH (Chemicon 1:500), GABA (Chemicon, 1:1000) or SNAP-25 as a synaptic protein normalization control (Chemicon, 1:1000). Band densities were quantified using a Chemimager (Alpha Innotech, San Leandro, Calif.). Approximately 94% synaptosomes in the eluate were dopaminergic according to densitometric evaluation of the western blot.
Hydrogen peroxide levels were measured in the striatal dopaminergic and nondopaminergic synaptosomes prepared as above from various groups of mice. Mice were injected in the tail vein with ˜200 μl of DCFDA (Calbiochem) which was freshly diluted 100× with PBS from a stock of 100 mg/ml in DMSO as modified from Andrews et. al.. […] Hydrogen peroxide in the synaptosomes with or without 1 mg/ml catalase for 30 min after preparation was visualized as DCF fluorescence at 488 nm excitation and 512 nm emission in a Spectramax Gemini fluorescence plate reader. The relative fluorescence was normalized to synaptosomal protein which was quantified using the Bradford reagent, Bio-Rad.

mitochondrial complex I = experiment: Mitochondrial complex I activity in isolated ST dopaminergic synaptosomes; format: in vivo, mouse; conditions: dox-induced animals co-treated
Protocol: as §1, with “blot. […]” for “blot.”

SN dopaminergic neurons = experiment: Mitochondrial superoxide in vivo (Mitosox Red) in SN dopaminergic neurons; parameters: species or system mouse; conditions: for increases in mitosox red fluorescence within dopaminergic SN neurons: dox-induced transgenics, co-treatment, FIG. 6; for Mean pixel intensity per cell / Total pixel fluorescence per cell: superoxide (mitosox red) in SN dopaminergic neurons, dox-induced plus co-treatment
Protocol: Mitosox Red (Molecular Probes) was used as an indicator to assess presence of superoxide within cellular mitochondria. 10 μg of Mitosox in 200 μl phosphate-buffered saline was injected into the tail vein of dox-induced transgenics versus controls. Animals were sacrificed 90 minutes later, brains rapidly dissected out and post-fixed overnight in 4% paraformaldehyde. Brains were sectioned at 30 μm using a cryostat. Cellular localization and site of Mitosox Red accumulation in the nigrostriatum was identified by immunofluorescence using anti-TH (Chemicon, 1:500), anti-IBA1 (Wako, 1:500) or anti-GFAP (DAKO, 1:500) antibodies visualized with Fluorescein Avidin D. Mitochondrial localization was confirmed by immunoanalysis using an anti-ATP synthase-specific antibody. Fluorescent imaging was done using a Zeiss LSM510 NLO confocal microscope and images procured using LSM software. Quantification of colocalization and fluorescent intensity was determined using the IMARIS software suite (Bitplane AG, Zurich, Switzerland) on selected cells from multiple sections.

[2] = Striatal MPP+ levels by HPLC after MPTP injection; format: in vivo, mouse; conditions: 30 mg/kg MPTP, 90 minutes post injection
Protocol: (§2) Striatal tissue was harvested from dox versus untreated animals 90 minutes following injection of 30 mg/kg MPTP intraperitoneally, immediately immersed in ice cold 0.1 M perchloric acid and sonicated. MPP^+ was measured by HPLC as previously described. Dopamine levels were analyzed in striata dissected two weeks of induction or 24 hrs following MPTP injection post induction by HPLC followed by a 464 pulsed electrochemical detection (Neurochemistry Core, Center for Molecular Neuroscience, Vanderbilt University). Stereological cell counts were performed on immunostained brain sections from brains harvested two weeks after induction using either antibody against tyrosine hydroxylase (TH, Chemicon, 1:500) followed by biotin-labeled secondary antibody and development using DAB (Vector Laboratories). TH^+ cells were counted stereologically throughout the SNpc. Counts for dox removal were performed on brains dissected after removal of dox from the feed for a three week period. Sections were cut at a 40 μm thickness, and every 4th section was counted using a grid of 100×100 μm. Dissector size used was 35×35×12 μm. Neuronal numbers were assessed following NeuN^+ (Chemicon, 1:100) or GABA^+ (Chemicon, 1:1000) immunostaining and astrocytes via GFAP^+ (DAKO, 1:500) and s100-â (DAKO, 1:200) immunostaining. Cells were counted in the SN, striata, and cortex in three independent sections per condition and ten fields per section. […] Dopaminochrome was measured from striatal samples by HPLC as per Ochs et al.
To validate that our transgenic model expresses functionally active MAO-B, we assessed its vulnerability to acute systemic MPTP administration. […] Induced and uninduced transgenic mice and wildtype C57B16 littermates were treated with 30 mg/kg MPTP and striatal MPP levels measured via HPLC (Table 1). […]

[3] = test system: tyrosine hydroxylase positive (TH+) cells in mesencephalic cultures; experiment: TH+ dopaminergic cell counts and morphology in dox-induced mesencephalic cultures; format: cell-based, mouse; conditions: 40 μg/ml dox, twelve hours; deprenyl co-treatment (10 μM); FIG. 2A
astroglia = experiment: Astrocyte activation by GFAP immunostaining in induced transgenic mice; format: in vivo, mouse; conditions: dox-treated transgenic mice, deprenyl co-treatment
Protocol: as §2, with “Stereological cell counts were performed on immunostained brain sections from brains harvested two weeks after induction using either antibody against tyrosine hydroxylase (TH, Chemicon, 1:500) followed by biotin-labeled secondary antibody and development using DAB (Vector Laboratories).” left out, “Counts for dox removal were performed on brains dissected after removal of dox from the feed for a three week period.” left out, “Dissector size used was 35×35×12 μm.” left out
Immunochemistry was performed on cryosections derived from the SN, striata, and CTX of fixed perfused brains from dox-induced transgenics versus controls. Astrocytic activation was assessed using primary antibodies against GFAP and s100-β. […]

microglia = experiment: Microglial activation (Iba1 immunochemistry) in the SN; format: in vivo, mouse; conditions: SN of dox-induced transgenics; FIG. 7B
Protocol: Immunochemistry was performed on cryosections derived from the SN, striata, and CTX of fixed perfused brains from dox-induced transgenics versus controls. Astrocytic activation was assessed using primary antibodies against GFAP and s100-β. Microglial activation was detected using primary antibodies against […] Horse radish peroxidase or avidin-conjugated secondary antibodies were used to detect primary antibodies following either DAB or Fluorescein/Texas Red staining.

[4] = Locomotor behavioral assessment (open field, Truscan); format: in vivo, mouse; conditions: induced mice, dox two weeks, deprenyl-treated
Protocol: Locomotor function was assessed using an automated Truscan photobeam apparatus (Colbourne Instruments, Allentown, Pa.) under illumination as previously described. Animals were habituated to the apparatus for 10 min then data collected over a 10-min period followed by analysis using Truscan 99 software. Spontaneous horizontal movement was assessed in both control and dox treated versus untreated transgenic mice via both ambulatory velocity and distance in a 10-min period.

[5] = test system: Parkinson's disease (PD) patients; conditions: cited from earlier work; for mortality rate: clinical PD, given after symptoms were present

Row | Compound | increase in extracellular H2O2 (mesencephalic cultures) | elevation of H2O2 levels in ST dopaminergic synaptosomes [1] | loss of CI activity in dopaminergic synaptosomes (mitochondrial complex I) | increases in mitosox red fluorescence within dopaminergic SN neurons (SN dopaminergic neurons) | Mean pixel intensity per cell (SN dopaminergic neurons) | Total pixel fluorescence per cell (SN dopaminergic neurons) | other results
1 | CC(=O)O.CCOc1cccc(C=NCCN=Cc2cccc(OCC)c2[O-])c1[O-].[Mn] [EUK-189] | prevented the increase | preventable | attenuated | prevented | 15.4 ± 4.0 | 126,757 ± 23,798 | dopaminergic SN cell loss (dopaminergic SN neurons): attenuated
2 | C[n+]1ccc(-c2ccccc2)cc1 [MPP+] |  |  |  |  |  |  | Striatal MPP+ levels ([2]; Dox (induced transgenic mice)): 182 ± 3.4 ng/mg protein; Striatal MPP+ levels ([2]; No Dox (uninduced transgenic mice)): 118 ± 2.3 ng/mg protein; Striatal MPP+ levels ([2]; WT (wildtype C57Bl6 littermates)): 100 ± 3.5 ng/mg protein
3 | COc1cc(C(C)=O)ccc1O [apocynin] | partial reduction |  |  |  |  |  | 
4 | C#CCN(C)[C@H](C)Cc1ccccc1 [deprenyl] | prevented the increase | preventable | attenuated | prevented | 10.2 ± 2.1 | 91,937 ± 19,107 | loss in the number of TH+ cells [3]: attenuated; astroglial branching (activation) and increased astroglial brain numbers, GFAP (astroglia): inhibited; microglial activation (microglia): prevented; locomotor activity [4]: completely unaffected; mortality rate [5]: ineffective; mortality rate ([5]; listed as selegiline): no effect; requirement of L-DOPA supplementation ([5]; early stages of symptomatic PD): delayed and reduced
5 | Catalase |  |  |  |  |  |  | DCF fluorescence of dopaminergic synaptosomes from induced animals ([1]; synaptosomes treated with 1 mg/ml catalase for 30 min after preparation): reduced the fluorescence to below uninduced levels
